Test results from US20250268903A1, “RXFP1 AGONISTS” (BRISTOL-MYERS SQUIBB COMPANY, priority 2021, published 2025).

Target: T1, human RXFP1 (Homo sapiens, UniProt Q9HBX9)
T1 construct: expressed in transfected cells
T1 sequence (Q9HBX9 1-757): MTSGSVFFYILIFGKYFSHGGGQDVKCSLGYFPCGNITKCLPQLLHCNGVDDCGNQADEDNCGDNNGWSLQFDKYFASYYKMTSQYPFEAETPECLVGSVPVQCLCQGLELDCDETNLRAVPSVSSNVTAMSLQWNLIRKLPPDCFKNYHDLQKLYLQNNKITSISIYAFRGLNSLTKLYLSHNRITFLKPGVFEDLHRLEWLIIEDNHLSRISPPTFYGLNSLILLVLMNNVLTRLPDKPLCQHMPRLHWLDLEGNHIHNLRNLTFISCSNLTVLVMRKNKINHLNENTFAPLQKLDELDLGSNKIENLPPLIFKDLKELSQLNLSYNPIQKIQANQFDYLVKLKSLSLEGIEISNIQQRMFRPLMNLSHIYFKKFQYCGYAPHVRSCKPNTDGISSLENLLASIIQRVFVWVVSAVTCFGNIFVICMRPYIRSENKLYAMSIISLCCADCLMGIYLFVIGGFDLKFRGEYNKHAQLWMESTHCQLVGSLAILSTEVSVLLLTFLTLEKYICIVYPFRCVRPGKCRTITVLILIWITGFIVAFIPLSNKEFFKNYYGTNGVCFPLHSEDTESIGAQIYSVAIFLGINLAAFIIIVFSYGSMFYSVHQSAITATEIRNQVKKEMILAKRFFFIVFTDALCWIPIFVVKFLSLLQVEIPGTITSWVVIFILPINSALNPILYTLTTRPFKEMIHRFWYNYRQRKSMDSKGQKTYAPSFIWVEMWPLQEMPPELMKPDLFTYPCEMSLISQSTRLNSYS
Test: hRXFP1 HEK293 cAMP assay (HTRF)
Format: cell-based
Conditions: HEK293 cells stably expressing human RXFP1, 30 min at room temperature
Method in brief: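 HEK293 cells stably expressing human RXFP1 were suspended in HBSS (Ca/Mg) with 20 mM HEPES, 0.05% BSA and 0.5 mM IBMX, then treated with compounds (0.010 nM–50 μM, 2% DMSO final) for 30 min at room temperature. Intracellular cAMP was measured by HTRF, and potency was derived from 4-parameter logistic fits.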

**Q.** `COc1c(F)cc(C(=O)NCC2(S(C)(=O)=O)CC2)cc1C(=O)N[C@H]1[C@@H](C(=O)Nc2ccc(F)c(C(F)(F)F)c2)[C@H]2CC[C@@H]1/C2=C\C1CC(F)(F)C1` [Example 374, N3-[(1R,2R,3S,4R,7Z)-7-[(3,3-difluorocyclobutyl)methylidene]-3-{[4-fluoro-3-(trifluoromethyl)phenyl]carbamoyl}bicyclo[2.2.1]heptan-2-yl]-5-fluoro-N1-[(1-methanesulfonyl-cyclopropyl)methyl]-4-methoxybenzene-1,3-dicarboxamide] was tested. Which EC50 did it give?
**A.** 6.9 nM

**Q.** Which EC50 does the source give for `COc1ccc(S(=O)(=O)N2CCS(=O)(=O)CC2)cc1C(=O)NC1C2CCC(/C2=C/C(F)(F)F)[C@@H]1C(=O)Nc1ccc(F)c(C(F)(F)F)c1` (stereo partly drawn) [Example 202, (2S,3R,7Z)-3-{5-[(1,1-dioxo-1λ^6-thiomorpholin-4-yl)sulfonyl]-2-methoxybenzamido}-N-[4-fluoro-3-(trifluoromethyl)phe-nyl]-7-(2,2,2-trifluoroethylidene)bi-cyclo[2.2.1]heptane-2-carboxamide] here?
**A.** 186 nM

**Q.** `COc1ccc(CCCCCC#N)cc1C(=O)NC1C2CCC(/C2=C/C(F)(F)F)[C@@H]1C(=O)Nc1ccc(F)c(C(F)(F)F)c1` (some centres unmarked) [Example 181, (7Z)-3-[5-(5-cyanopentyl)-2-methoxybenzamido]-N-[4-fluoro-3-(trifluoromethyl)phe-nyl]-7-(2,2,2-trifluoroethylidene)bi-cyclo[2.2.1]heptane-2-carboxamide] was tested. Which EC50 did it give?
**A.** 103 nM

**Q.** How did the EC50 turn out when “(1R,4R,7Z)-N-14- fluoro-3- (trifluoromethyl) phenyl]-3-[5-(3- hydroxy-3- methylbutyl)-2- methoxybenzamido 1-7-[(oxan-3- yl)methylidene] bicyclo[2.2.1] heptane- 2-carboxamide [Example 266]” was run?
**A.** 186 nM

**Q.** Which EC50 does the source give for `COc1ccc(CCCCCCC#N)cc1C(=O)NC1C2CCC(/C2=C/C2CCC2)[C@@H]1C(=O)Nc1ccc(F)c(C(F)(F)F)c1` (some centres unmarked) [Example 192, (7Z)-3-[5-(6-cyanohexyl)-2-methoxybenzamido]-7-(cyclobutylmethyl-idene)-N-[4-fluoro-3-(trifluoromethyl)phe-nyl]bicyclo[2.2.1] heptane-2-carboxamide] here?
**A.** 33 nM

**Q.** `CCOC(=O)/C(C)=C/c1ccc(OC)c(C(=O)N[C@H]2[C@@H](C(=O)Nc3ccc(F)c(C(F)(F)F)c3)[C@H]3CC[C@@H]2/C3=C\C(F)(F)F)c1` [Example 305, ethyl (2E)-3-(3-{[(1R,2R,3S,4R,7Z)-3-{[4-fluoro-3-(trifluoromethyl)phenyl]carbamoyl}-7-(2,2,2-trifluoroethylidene)bicyclo[2.2.1]heptan-2-yl]carbamoyl}-4-methoxyphenyl)-2-methylprop-2-enoate] was tested. Which EC50 did it give?
**A.** 744 nM

**Q.** How did the EC50 turn out when `CCOC(=O)C1CCCC(c2ccc(OC)c(C(=O)N[C@@H]3C4CCC(/C4=C/C(F)(F)F)[C@@H]3C(=O)Nc3ccc(F)c(C(F)(F)F)c3)c2)C1` (some centres unmarked) [Example 142] was run?
**A.** 167 nM

**Q.** `COc1ccc(C2CC3(CC(N)C3)C2)cc1C(=O)NC1C2CCC(/C2=C/C(F)(F)F)[C@@H]1C(=O)Nc1ccc(F)c(C(F)(F)F)c1` (stereo partly drawn) [Example 154, (2S,3R,7Z)-3-(5-{6-aminospiro[3.3]hept-an-2-yl}-2-methoxybenzamido)-N-[4-fluoro-3-(trifluoromethyl)phe-nyl]-7-(2,2,2-trifluoroethylidene)bi-cyclo[2.2.1]heptane-2-carboxamide] was tested. Which EC50 did it give?
**A.** 1050 nM

**Q.** With `COc1ccc(CCCCCCOC(=O)NC2CCC2)cc1C(=O)N[C@@H]1C2CCC(/C2=C/C(F)(F)F)[C@@H]1C(=O)Nc1ccc(F)c(C(F)(F)F)c1` (stereo partly drawn) [Example 101, 6-(3-{[(2R,3S,7Z)-3-{[4-fluoro-3-(trifluoromethyl)phe-nyl]carbamoyl}-7-(2,2,2-trifluoroethylidene)bi-cyclo[2.2.1]heptan-2-yl]carbamoyl}-4-methoxyphenyl)hex-yl N-cyclobutylcarbamate] as the compound, how does the EC50 read?
**A.** 194 nM

**Q.** `COc1ccc(/C=C/C(=O)O)cc1C(=O)N[C@H]1[C@@H](C(=O)Nc2ccc(F)c(C(F)(F)F)c2)[C@H]2CC[C@@H]1/C2=C\C(F)(F)F` [Example 8, (E)-3-(3-(((1R,2R,3S,4R,Z)-3-((4-fluoro-3-(trifluoromethyl)phenyl)carbamoyl)-7-(2,2,2-trifluoroethylidene)bicyclo[2.2.1]heptan-2-yl)carbamoyl)-4-methoxyphenyl) acrylic acid] was tested. Which EC50 did it give?
**A.** 309 nM

**Q.** With `COc1ccc(CCC(N)=O)cc1C(=O)NC1C2CCC(/C2=C/C(F)(F)F)[C@@H]1C(=O)Nc1ccc(F)c(C(F)(F)F)c1` (stereo partly drawn) [Example 140, (2S,3R,7Z)-3-[5-(2-carbamoylethyl)-2-methoxybenzamido]-N-[4-fluoro-3-(trifluoromethyl)phe-nyl]-7-(2,2,2-trifluoroethylidene)bi-cyclo[2.2.1]heptane-2-carboxamide] as the compound, how does the EC50 read?
**A.** 736 nM

**Q.** How did the EC50 turn out when `COc1ccc(CCCNC(=O)C2CCOCC2)cc1C(=O)N[C@@H]1C2CCC(/C2=C/C(F)(F)F)[C@@H]1C(=O)Nc1ccc(F)c(C(F)(F)F)c1` (stereo partly drawn) [Example 115, N-[3-(3-{[(2R,3S,7Z)-3-{[4-fluoro-3-(trifluoromethyl)phe-nyl]carbamoyl}-7-(2,2,2-trifluoroethylidene)bi-cyclo[2.2.1]heptan-2-yl]carbamoyl}-4-methoxyphenyl)pro-pyl]oxane-4-carboxamide] was run?
**A.** 536 nM

**Q.** Which EC50 does the source give for `COc1ccc(CCCCCCC#N)cc1C(=O)NC1C2CCC(/C2=C/C(F)(F)F)[C@@H]1C(=O)Nc1ccc(F)c(C(F)(F)F)c1` (some centres unmarked) [Example 184, (7Z)-3-[5-(6-cyanohexyl)-2-methoxybenzamido]-N-[4-fluoro-3-(trifluoromethyl)phe-nyl]-7-(2,2,2-trifluoroethylidene)bi-cyclo[2.2.1]heptane-2-carboxamide] here?
**A.** 252 nM

**Q.** With `COc1ccc(CCC(=O)NCC(F)(F)F)cc1C(=O)NC1C2CCC(/C2=C/C(F)(F)F)[C@@H]1C(=O)Nc1ccc(F)c(C(F)(F)F)c1` (stereo partly drawn) [Example 141, (2S,3R,7Z)-N-[4-fluoro-3-(trifluoromethyl)phe-nyl]-3-(2-methoxy-5-{2-[(2,2,2-trifluoroethyl)carba-moyl]ethyl}benzami-do)-7-(2,2,2-trifluoroethylidene)bi-cyclo[2.2.1]heptane-2-carboxamide] as the compound, how does the EC50 read?
**A.** 829 nM

**Q.** For `COc1ccc(CCCCCO)cc1C(=O)N[C@@H]1C2CCC(/C2=C/C(F)(F)F)[C@@H]1C(=O)Nc1ccc(F)c(C(F)(F)F)c1` (stereo partly drawn) [Example 97, (2S,3R,7Z)-N-[4-fluoro-3-(trifluoromethyl)phe-nyl]-3-[5-(5-hydroxypentyl)-2-methoxybenzamido]-7-(2,2,2-trifluoroethylidene)bi-cyclo[2.2.1]heptane-2-carboxamide], which EC50 is on record?
**A.** 82 nM

**Q.** How did the EC50 turn out when `COc1ccc(Cc2ccc(F)cc2)cc1C(=O)N[C@H]1[C@@H](C(=O)Nc2ccc(F)c(C(F)(F)F)c2)[C@H]2CC[C@@H]1/C2=C\C(F)(F)F` [Example 155, (1R,2S,3R,4R,Z)—N-(4-fluoro-3-(trifluoromethyl)phenyl)-3-(5-(4-fluorobenzyl)-2-methoxybenzamido)-7-(2,2,2-trifluoroethylidene) bicyclo[2.2.1]heptane-2-carboxamide] was run?
**A.** 427 nM

**Q.** With `COc1ccc(C2CCCC2)cc1C(=O)N[C@@H]1C2CCC(/C2=C/C(F)(F)F)[C@@H]1C(=O)Nc1ccc(F)c(C(F)(F)F)c1` (stereo partly drawn) [Example 47, (2S,3R,7Z)-3-(5-cyclopentyl-2-methoxybenzamido)-N-[4-fluoro-3-(trifluoroemthyl)phe-nyl]-7-(2,2,2-trifluoroethylidene) bicyclo[2.2.1]heptane-2-carboxamide] as the compound, how does the EC50 read?
**A.** 926 nM
